# Measured values as given in ChEMBL document CHEMBL1138514, “Rhodamine inhibitors of P-glycoprotein: an amide/thioamide "switch" for ATPase activity” (J Med Chem, 2009).
# Key:
# [1] = (§1) Permeability from apical to basolateral side of MDCK2 cells over expressing MDR1 at 5 uM after 1 hr; conditions: dog, MDCK-MDR1, 1 h, 5 µM
# [2] = (§2) Permeability from apical to basolateral side of MDCK2 cells over expressing MDR1 at 5 uM in presence LSN335984 pretreated for 30 mins measured after 1 hr; conditions: dog, MDCK-MDR1, 1 h, 5 µM
# [3] = (§3) Permeability from basolateral to apical side of MDCK2 cells over expressing MDR1 at 5 uM after 1 hr; conditions: dog, MDCK-MDR1, 1 h, 5 µM
# [4] = (§4) Permeability from basolateral to apical side of MDCK2 cells over expressing MDR1 at 5 uM in presence LSN335984 pretreated for 30 mins measured after 1 hr; conditions: dog, MDCK-MDR1, 1 h, 5 µM
# [5] = Permeability from apical to basolateral side of MDCK2 cell monolayer over expressing MDR1 assessed as drug concentration associated with cell at 5 uM after 1 hr of drug washout by methanol; conditions: dog
# [6] = Permeability from apical to basolateral side of MDCK2 cell monolayer over expressing MDR1 assessed as drug concentration associated with cell at 5 uM after 1 hr of drug washout by methanol in presence of LSN335984; conditions: dog
# [7] = Octanol-water partition coefficient, log P of the compound
# [8] = molecular target: T1, ATP-dependent translocase ABCB1 (Homo sapiens, UniProt P08183); assay: Inhibition of human MDR1 expressed in MDCK2 cells assessed as enhancement of Calcein-AM uptake treated 30 mins before Calcein-AM challenge measured after 20 mins
# T1 sequence (P08183 whole entry): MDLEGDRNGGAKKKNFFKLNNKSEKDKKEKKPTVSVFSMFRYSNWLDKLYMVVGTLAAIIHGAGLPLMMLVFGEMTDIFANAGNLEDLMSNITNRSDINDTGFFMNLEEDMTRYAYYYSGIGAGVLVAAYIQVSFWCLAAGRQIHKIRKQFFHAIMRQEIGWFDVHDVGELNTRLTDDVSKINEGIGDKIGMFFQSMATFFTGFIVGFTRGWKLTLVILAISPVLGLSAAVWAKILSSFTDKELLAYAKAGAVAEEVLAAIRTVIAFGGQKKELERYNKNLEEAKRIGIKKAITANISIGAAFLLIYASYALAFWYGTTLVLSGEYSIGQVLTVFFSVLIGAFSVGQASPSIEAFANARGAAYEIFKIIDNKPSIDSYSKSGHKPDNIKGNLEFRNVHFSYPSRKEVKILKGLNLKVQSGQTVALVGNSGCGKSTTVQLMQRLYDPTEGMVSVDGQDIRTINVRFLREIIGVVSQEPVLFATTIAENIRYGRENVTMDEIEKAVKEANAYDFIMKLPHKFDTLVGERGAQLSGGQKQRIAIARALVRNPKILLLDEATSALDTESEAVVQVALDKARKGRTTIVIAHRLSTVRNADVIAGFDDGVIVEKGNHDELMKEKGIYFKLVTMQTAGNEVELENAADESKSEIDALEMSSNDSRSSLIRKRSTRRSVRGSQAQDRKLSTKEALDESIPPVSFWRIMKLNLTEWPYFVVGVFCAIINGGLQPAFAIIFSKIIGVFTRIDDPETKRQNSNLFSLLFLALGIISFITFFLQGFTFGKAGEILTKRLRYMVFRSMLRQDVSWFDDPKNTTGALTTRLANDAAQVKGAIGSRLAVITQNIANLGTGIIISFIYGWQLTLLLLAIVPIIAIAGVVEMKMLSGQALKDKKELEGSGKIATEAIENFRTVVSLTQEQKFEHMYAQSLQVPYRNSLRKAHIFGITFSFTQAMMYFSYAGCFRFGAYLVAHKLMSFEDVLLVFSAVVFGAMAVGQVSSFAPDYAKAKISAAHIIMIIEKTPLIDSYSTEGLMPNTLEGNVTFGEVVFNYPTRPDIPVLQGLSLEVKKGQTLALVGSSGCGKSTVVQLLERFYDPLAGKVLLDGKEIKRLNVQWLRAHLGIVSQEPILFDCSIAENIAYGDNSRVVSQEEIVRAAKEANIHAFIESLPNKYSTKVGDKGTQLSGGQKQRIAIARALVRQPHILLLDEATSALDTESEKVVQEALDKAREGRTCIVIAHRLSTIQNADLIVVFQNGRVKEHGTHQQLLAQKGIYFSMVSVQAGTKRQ
# MDR3 (ABCB1) = MDR3 (ABCB1) (Mus musculus, UniProt P21447); assay: Induction of mouse cysteine-less MDR3 ATPase activity relative to basal activity
# Sequence of MDR3 (ABCB1) (P21447 whole entry): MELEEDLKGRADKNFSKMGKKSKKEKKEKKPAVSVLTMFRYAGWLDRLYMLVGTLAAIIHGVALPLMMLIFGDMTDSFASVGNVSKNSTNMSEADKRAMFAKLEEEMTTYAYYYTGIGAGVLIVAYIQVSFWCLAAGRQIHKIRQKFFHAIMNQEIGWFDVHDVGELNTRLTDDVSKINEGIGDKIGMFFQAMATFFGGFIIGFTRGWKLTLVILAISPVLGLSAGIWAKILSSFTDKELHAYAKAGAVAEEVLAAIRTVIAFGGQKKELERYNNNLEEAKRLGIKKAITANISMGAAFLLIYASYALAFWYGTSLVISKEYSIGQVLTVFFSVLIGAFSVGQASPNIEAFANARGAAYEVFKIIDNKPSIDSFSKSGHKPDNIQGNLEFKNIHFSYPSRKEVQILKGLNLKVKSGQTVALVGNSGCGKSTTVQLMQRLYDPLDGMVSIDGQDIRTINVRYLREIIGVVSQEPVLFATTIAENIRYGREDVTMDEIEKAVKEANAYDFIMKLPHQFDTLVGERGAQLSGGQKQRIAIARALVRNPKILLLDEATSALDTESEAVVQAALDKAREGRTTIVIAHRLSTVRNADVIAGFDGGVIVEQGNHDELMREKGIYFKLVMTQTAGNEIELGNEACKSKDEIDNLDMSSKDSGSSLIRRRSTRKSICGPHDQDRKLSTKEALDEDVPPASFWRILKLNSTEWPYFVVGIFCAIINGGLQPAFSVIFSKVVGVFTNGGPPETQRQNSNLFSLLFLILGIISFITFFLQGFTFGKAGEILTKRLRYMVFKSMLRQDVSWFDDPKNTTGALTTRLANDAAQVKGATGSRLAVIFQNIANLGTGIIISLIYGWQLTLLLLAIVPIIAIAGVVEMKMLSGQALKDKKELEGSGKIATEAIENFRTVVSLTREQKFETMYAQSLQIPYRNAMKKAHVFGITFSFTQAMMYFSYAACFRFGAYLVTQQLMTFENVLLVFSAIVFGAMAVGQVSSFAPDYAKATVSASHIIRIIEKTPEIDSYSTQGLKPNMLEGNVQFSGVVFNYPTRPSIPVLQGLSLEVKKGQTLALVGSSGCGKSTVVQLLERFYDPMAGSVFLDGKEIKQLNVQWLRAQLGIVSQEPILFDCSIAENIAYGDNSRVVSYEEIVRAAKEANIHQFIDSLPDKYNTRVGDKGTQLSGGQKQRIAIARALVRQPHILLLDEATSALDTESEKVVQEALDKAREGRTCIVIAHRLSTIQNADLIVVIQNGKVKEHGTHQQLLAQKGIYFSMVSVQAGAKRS
# MDR1 (ABCB1) = MDR1 (ABCB1) (Homo sapiens, UniProt P08183); assay: Induction of human histidine10-tagged MDR1 ATPase activity expressed in BHK cells relative to basal activity
# Sequence of MDR1 (ABCB1) (P08183 whole entry): as the sequence (P08183 whole entry) above
# [9] = molecular target: ATP-dependent translocase ABCB1 (Mus musculus, UniProt P21447); assay: Inhibition of verapamil-stimulated ATPase activity of mouse cysteine-less MDR3
# Sequence of ATP-dependent translocase ABCB1 (Mus musculus, UniProt P21447) (P21447 whole entry, looked up): as the sequence (P21447 whole entry) above
# [10] = molecular target: T1, ATP-dependent translocase ABCB1; assay: Inhibition of verapamil-stimulated ATPase activity of human histidine10-tagged MDR1 expressed in BHK cells
# MDR1 [11] = assay: as §1; conditions: dog, MDCK-MDR1
# MDR1 [12] = assay: as §2; conditions: dog
# MDR1 [13] = assay: as §3; conditions: dog, MDCK-MDR1
# MDR1 [14] = assay: as §4; conditions: dog
# MDR1 [15] = assay: (§5) Efflux ratio of permeability from apical to basolateral over basolateral to apical side in MDCK2 cells over expressing MDR1 at 5 uM after 1 hr; conditions: dog, MDCK-MDR1
# MDR1 [16] = assay: Efflux ratio of permeability from apical to basolateral over basolateral to apical side in MDCK2 cells over expressing MDR1 at 5 uM after 1 hr in presence LSN335984 pretreated for 30 mins measured after 1 hr; conditions: dog
# [17] = Ratio of permeability from apical to basolateral side after 1 hr of drug washout by methanol to apical to basolateral side in MDCK2 cell monolayer over expressing MDR1 at 5 uM after 1 hr of drug washout by methanol in presence LSN335984; conditions: dog, mdck-ii
# [18] = as §5; conditions: dog, MDCK-MDR1, 1 h, 5 µM
# [19] = human histidine10-tagged MDR1 expressed in BHK cells
# [20] = MDCK-MDR1, with LSN335984 (concentration not stated)
smiles,measurement,setting,value
C[N+](C)=c1ccc2c(-c3ccc(C(=S)N4CCCCC4)s3)c3cc4c5c(c3sc-2c1)CCCN5CCC4.F[P-](F)(F)(F)(F)F,permeability,[1],0.08 ×10⁻⁶ cm/s
same,permeability,[2],0.08 ×10⁻⁶ cm/s
same,permeability,[3],5 ×10⁻⁶ cm/s
same,permeability,[4],0.16 ×10⁻⁶ cm/s
same,Activity,"[5]; MDCK-MDR1, 1 h",23%
same,Activity,"[6]; MDCK-MDR1, 1 h",30%
same,logP,[7],2.7
C[N+](C)=c1ccc2c(-c3ccc(C(=S)N4CCOCC4)s3)c3cc4c5c(c3[se]c-2c1)CCCN5CCC4,IC50,[8],14 µM
CN(C)c1ccc2c(-c3ccccc3)c3ccc(=[N+](C)C)cc-3[se]c2c1,fold induction,MDR3 (ABCB1); mouse cysteine-less MDR3,4
same,fold induction,MDR1 (ABCB1); [19],7.2
same,IC50,[8],11 µM
CCN(CC)C(=O)c1ccc(-c2c3ccc(=[N+](C)C)cc-3[se]c3cc(N(C)C)ccc23)s1.F[P-](F)(F)(F)(F)F,fold induction,MDR3 (ABCB1); mouse cysteine-less MDR3,10.1
same,fold induction,MDR1 (ABCB1); [19],10.5
same,Activity,"[5]; mdck-ii, 1 h",11%
same,Activity,"[6]; mdck-ii, 1 h",24%
same,logP,[7],-0.39
C[N+](C)=c1ccc2c(-c3ccc(C(=S)N4CCCCC4)s3)c3cc4c5c(c3[se]c-2c1)CCCN5CCC4,IC50,[8],5.3 µM
CN(C)c1cccc(-c2c3ccc(=[N+](C)C)cc-3[se]c3cc(N(C)C)ccc23)c1,fold induction,MDR1 (ABCB1); [19],7.6
C[N+](C)=c1ccc2c(-c3ccccc3)c3cc4c5c(c3[se]c-2c1)CCCN5CCC4.F[P-](F)(F)(F)(F)F,fold induction,MDR3 (ABCB1); mouse cysteine-less MDR3,2.1
same,IC50,[9],0.28 µM
same,fold induction,MDR1 (ABCB1); [19],< 1.5
same,IC50,[10],2.3 µM
same,"Papp A→B at 1 h, 5 µM",MDR1 [11],1.6 ×10⁻⁶ cm/s
same,"Papp A→B at 1 h, 5 µM",MDR1 [12]; [20],1.3 ×10⁻⁶ cm/s
same,"Papp B→A at 1 h, 5 µM",MDR1 [13],25 ×10⁻⁶ cm/s
same,"Papp B→A at 1 h, 5 µM",MDR1 [14]; [20],1.2 ×10⁻⁶ cm/s
same,"efflux ratio at 1 h, 5 µM",MDR1 [15],15
same,"efflux ratio at 1 h, 5 µM",MDR1 [16]; [20],0.9
same,Activity,"[5]; mdck-ii, 1 h",32%
same,Activity,"[6]; mdck-ii, 1 h",64%
same,Ratio,[17],2
same,logP,[7],2.4
same,IC50,[8],4.9 µM
CN(C)c1ccc(-c2c3ccc(=[N+](C)C)cc-3[se]c3cc(N(C)C)ccc23)cc1,fold induction,MDR3 (ABCB1),2.3
same,IC50,[9],21 µM
same,fold induction,MDR1 (ABCB1); bhk,6.8
CCOC(=O)c1ccc(-c2c3ccc(=[N+](C)C)cc-3sc3cc(N(C)C)ccc23)s1,fold induction,MDR3 (ABCB1); mouse cysteine-less MDR3,2.9
COc1cccc(-c2c3ccc(=[N+](C)C)cc-3sc3cc(N(C)C)ccc23)c1.[Br-],Activity,"[6]; mdck-ii, 1 h",56%
same,logP,[7],0.14
C[N+](C)=c1ccc2c(-c3ccccc3)c3cc4c5c(c3[te]c-2c1)CCCN5CCC4,fold induction,MDR1 (ABCB1); [19],3
CN(C)c1ccc(-c2c3ccc(=[N+](C)C)cc-3[te]c3cc(N(C)C)ccc23)cc1,fold induction,MDR1 (ABCB1); [19],4.5
CN(C)c1ccc(-c2c3ccc(=[N+](C)C)cc-3[se]c3c4c5c(cc23)CCCN5CCC4)cc1,fold induction,MDR1 (ABCB1); [19],< 1.5
same,IC50,[10],6.8 µM
COc1cccc(-c2c3ccc(=[N+](C)C)cc-3[se]c3cc(N(C)C)ccc23)c1,fold induction,MDR3 (ABCB1); mouse cysteine-less MDR3,6.4
same,fold induction,MDR1 (ABCB1); [19],2.5
CN(C)c1ccc2c(-c3ccccc3C(=O)O)c3ccc(=[N+](C)C)cc-3sc2c1,fold induction,MDR3 (ABCB1); mouse cysteine-less MDR3,3.5
COC(=O)c1ccccc1-c1c2ccc(=[N+](C)C)cc-2sc2cc(N(C)C)ccc12,fold induction,MDR3 (ABCB1); mouse cysteine-less MDR3,6
COc1cccc(-c2c3ccc(=[N+](C)C)cc-3[te]c3cc(N(C)C)ccc23)c1,fold induction,MDR1 (ABCB1); [19],5.7
COc1ccc(-c2c3ccc(=[N+](C)C)cc-3sc3cc(N(C)C)ccc23)cc1OC.F[P-](F)(F)(F)(F)F,fold induction,MDR3 (ABCB1); mouse cysteine-less MDR3,3
same,fold induction,MDR1 (ABCB1); [19],8.2
same,Activity,"[5]; mdck-ii, 1 h",16%
same,Activity,"[6]; mdck-ii, 1 h",53%
same,logP,[7],0.28
CN(C)c1ccc2c(-c3ccsc3C(=O)O)c3ccc(=[N+](C)C)cc-3sc2c1,fold induction,MDR1 (ABCB1); [19],4.3
CN(C)c1ccc2c(-c3ccc(C(=O)O)s3)c3ccc(=[N+](C)C)cc-3sc2c1,fold induction,MDR1 (ABCB1); [19],2.7
CN(C)c1ccc2c(CCCOc3ccccc3)c3ccc(=[N+](C)C)cc-3sc2c1,fold induction,MDR3 (ABCB1); mouse cysteine-less MDR3,6
same,fold induction,MDR1 (ABCB1); [19],6.2
CCN(CC)C(=O)c1ccc(-c2c3ccc(=[N+](C)C)cc-3sc3cc(N(C)C)ccc23)s1,fold induction,MDR3 (ABCB1); mouse cysteine-less MDR3,10.6
CN(C)c1ccc2c(-c3ccc(N4CCOCC4)cc3)c3ccc(=[N+](C)C)cc-3[se]c2c1,fold induction,MDR3 (ABCB1); mouse cysteine-less MDR3,< 1
same,IC50,[9],23 µM
same,fold induction,MDR1 (ABCB1); [19],3.3
CN(C)c1ccc2c(-c3ccc(C(=S)N4CCCCC4)s3)c3ccc(=[N+](C)C)cc-3sc2c1,IC50,[9],32 µM
same,logP,[7],1.7
C[N+](C)=c1ccc2c(-c3ccc(C(=S)N4CCCCC4)s3)c3cc4c5c(c3[te]c-2c1)CCCN5CCC4,IC50,[8],14 µM
C[N+](C)=c1ccc2c(-c3ccc(C(=S)N4CCOCC4)s3)c3cc4c5c(c3sc-2c1)CCCN5CCC4,IC50,[8],20 µM
CN(C)c1ccc2c(-c3ccccc3)c3ccc(=[N+](C)C)cc-3[te]c2c1,fold induction,MDR1 (ABCB1); [19],8.4
CN(C)c1ccc2c(-c3ccc(C(=O)O)s3)c3ccc(=[N+](C)C)cc-3[te]c2c1,fold induction,MDR1 (ABCB1); [19],1.8
CN(C)c1ccc2c(-c3ccc(N4CCOCC4)cc3)c3ccc(=[N+](C)C)cc-3sc2c1,fold induction,MDR1 (ABCB1); [19],4.8
CN(C)c1cccc(-c2c3ccc(=[N+](C)C)cc-3sc3cc(N(C)C)ccc23)c1,fold induction,MDR3 (ABCB1); mouse cysteine-less MDR3,3.5
same,fold induction,MDR1 (ABCB1); [19],7.7
CN(C)c1ccc(-c2c3ccc(=[N+](C)C)cc-3sc3cc(N(C)C)ccc23)cc1,fold induction,MDR3 (ABCB1); mouse cysteine-less MDR3,1
same,fold induction,MDR1 (ABCB1); [19],9
CN(C)c1ccc2c(-c3ccsc3C(=O)O)c3ccc(=[N+](C)C)cc-3[se]c2c1,fold induction,MDR3 (ABCB1); mouse cysteine-less MDR3,1.7
same,fold induction,MDR1 (ABCB1); [19],2.1
CN(C)c1ccc2c(-c3ccc(C(=S)N4CCCCC4)s3)c3ccc(=[N+](C)C)cc-3[te]c2c1.F[P-](F)(F)(F)(F)F,"Papp A→B at 1 h, 5 µM",MDR1 [11],0.09 ×10⁻⁶ cm/s
same,"Papp A→B at 1 h, 5 µM",MDR1 [12]; MDCK-MDR1,0.12 ×10⁻⁶ cm/s
same,"Papp B→A at 1 h, 5 µM",MDR1 [13],2.2 ×10⁻⁶ cm/s
same,"Papp B→A at 1 h, 5 µM",MDR1 [14]; MDCK-MDR1,0.2 ×10⁻⁶ cm/s
same,"efflux ratio at 1 h, 5 µM",MDR1 [15],24
same,"efflux ratio at 1 h, 5 µM",MDR1 [16]; MDCK-MDR1,1.7
same,Activity,"[5]; MDCK-MDR1, 1 h",12%
CN(C)c1cccc(-c2c3ccc(=[N+](C)C)cc-3[se]c3c4c5c(cc23)CCCN5CCC4)c1,fold induction,MDR1 (ABCB1); [19],< 1.5
same,IC50,[10],23.6 µM
CCN(CC)C(=O)c1ccccc1-c1c2ccc(=[N+](C)C)cc-2sc2cc(N(C)C)ccc12,fold induction,MDR3 (ABCB1); mouse cysteine-less MDR3,10.1
CN(C)c1cccc(-c2c3ccc(=[N+](C)C)cc-3[te]c3cc(N(C)C)ccc23)c1,fold induction,MDR1 (ABCB1); [19],5.5
CN(C)c1ccc2c(-c3ccc(CCl)cc3)c3ccc(=[N+](C)C)cc-3oc2c1.[Br-] [TETRAMETHYLROSAMINE],fold induction,MDR3 (ABCB1); mouse cysteine-less MDR3,3.7
same,"Papp A→B at 1 h, 5 µM",MDR1 [11],0.3 ×10⁻⁶ cm/s
same,"Papp A→B at 1 h, 5 µM",MDR1 [12]; [20],1.4 ×10⁻⁶ cm/s
same,"Papp B→A at 1 h, 5 µM",MDR1 [13],101 ×10⁻⁶ cm/s
same,"Papp B→A at 1 h, 5 µM",MDR1 [14]; [20],2.1 ×10⁻⁶ cm/s
same,Ratio,[18],338
same,"efflux ratio at 1 h, 5 µM",MDR1 [16]; MDCK-MDR1,1.6
same,Activity,"[5]; mdck-ii, 1 h",14.5%
same,Activity,"[6]; mdck-ii, 1 h",54%
same,Ratio,[17],4.3
same,logP,[7],1.1
